Experimental findings from ChEMBL document CHEMBL3797052 (Eur J Med Chem, 2016) are described below.

What all share (assay type): functional
Experiment [1] in a line: Cytotoxicity against human SKBR3 cells assessed as growth inhibition at 10 uM after 2 days by MTT assay. The following applies: SK-BR-3, 48 h, read-out: GI. In general terms: Formazan colour is commonly taken as a measure of viable cells.
The nature of experiment [2]: Cytotoxicity against human HCT116 cells assessed as growth inhibition at 10 uM after 2 days by MTT assay. The note with it: HCT-116, 48 h, read-out: GI.
A short description of experiment [3]: Cytotoxicity against human HCT116 cells assessed as growth inhibition at 100 uM after 2 days by MTT assay. The note with it: HCT-116, 48 h, read-out: GI.
Experiment [4] can be described thus: Cytotoxicity against human SKBR3 cells assessed as growth inhibition at 100 uM after 2 days by MTT assay. The following applies: SK-BR-3, 48 h, read-out: GI.

For the molecule `CNC(=O)c1cc(Oc2ccc3nc(NC(=O)Nc4ccc(F)cc4)sc3c2)ccn1`, the inhibition of growth at 10 µM in experiment [1] turned out to be 14.2%; in experiment [2], 12.2%. Besides, the inhibition of growth at 100 µM in experiment [3] worked out at 83.8%; in experiment [4], 72.9%.
For `CNC(=O)c1cc(Oc2ccc3nc(NC(=O)Nc4ccc(N5CCN(C)CC5)cc4)sc3c2)ccn1`, in that order: 30.5%, 24.6%, 95% and 86.4%.
Consider `CNC(=O)c1cc(Oc2ccc3nc(NC(=O)c4ccc(Cl)cc4Cl)sc3c2)ccn1`, for which the inhibition of growth at 10 µM amounted to 14% in experiment [1] and 15.1% in experiment [2]. For the same molecule, the inhibition of growth at 100 µM was 64.4% in experiment [3] and 81% in experiment [4].
For `CNC(=O)c1cc(Oc2ccc3nc(NC(=O)c4cc5ccccc5o4)sc3c2)ccn1`, in that order: 54.4%, 9.15%, 77.5% and 52.4%.
Turning to `CNC(=O)c1cc(Oc2ccc3nc(NC(=O)c4cc(Cl)cc(Cl)c4)sc3c2)ccn1`, the values for the inhibition of growth at 10 µM in experiment [1] and in experiment [2] were 9.62% and 13.4%, respectively. For the same molecule, the inhibition of growth at 100 µM worked out at 15.8% in experiment [3] and 84.2% in experiment [4].
In the case of `CNC(=O)c1cc(Oc2ccc3nc(NC(=O)Nc4ccc(Br)cc4)sc3c2)ccn1`, the inhibition of growth at 10 µM turned out to be 26.7% in experiment [1] and 12.1% in experiment [2]. Further, the inhibition of growth at 100 µM in experiment [3] came out at 80%; in experiment [4], 69.2%.
For `CNC(=O)c1cc(Oc2ccc3nc(NC(=O)c4ccc(Cl)cc4)sc3c2)ccn1`, in that order: 18.9%, 27.5%, 80.5% and 83%.
Consider `CNC(=O)c1cc(Oc2ccc3nc(NC(=O)Nc4cc(C(F)(F)F)ccc4Cl)sc3c2)ccn1`, for which the inhibition of growth at 10 µM was 28.3% in experiment [1] and 16.3% in experiment [2]. Further, the results for the inhibition of growth at 100 µM in experiment [3] and in experiment [4] were 90% and 89.1%, respectively.
For `CNC(=O)c1cc(Oc2ccc3nc(NC(=O)Nc4ccc(Cl)cc4Cl)sc3c2)ccn1`, in that order: 22.3%, 32.2%, 93.6% and 91.7%.
For the molecule `CNC(=O)c1cc(Oc2ccc3nc(NC(=O)Nc4ccc(N5CCOCC5)cc4)sc3c2)ccn1`, the inhibition of growth at 10 µM in experiment [1] came to 14.1%; in experiment [2], 1.58%. For the same molecule, the inhibition of growth at 100 µM worked out at 73.3% in experiment [3] and 77.7% in experiment [4].
